Columns and labels:
[1] = Toxicity against BALB/c mouse macrophage by MTT assay; assay type: cell-based; details: mouse macrophages
[2] = Selectivity index, ratio of IC50 for BALB/c macrophages to IC50 for Leishmania amazonensis (MHOM/BR/76/LTB-012)
Leishmania amazonensis [3] = assay: Antileishmanial activity against Leishmania amazonensis MHOM/BR/76/LTB-012 axenic amastigotes by MTT assay
Leishmania amazonensis [4] = assay: Antileishmanial activity against Leishmania amazonensis LMA CL1 amastigotes infected in mouse macrophage by MTT assay; assay type: functional, organism-based
Leishmania braziliensis = assay: Antileishmanial activity against Leishmania braziliensis MHOM/PE/PER006 promastigotes infected in mouse macrophage by MTT assay; assay type: functional, organism-based
Leishmania amazonensis [5] = assay: Antileishmanial activity against Leishmania amazonensis LV79 MPRO/BR/72/M1841 infected in BALB/c mouse assessed as lesion diameter at 5 mg/kg after 4 weeks; assay type: functional
Leishmania amazonensis [6] = assay: Antileishmanial activity against Leishmania amazonensis LV79 MPRO/BR/72/M1841 infected in BALB/c mouse assessed as reduction in parasite burden at 5 mg/kg after 4 weeks; assay type: functional; set-up: scale not given: the % may be the effect or the level left
Leishmania amazonensis [7] = assay: Antileishmanial activity against Leishmania amazonensis LV79 MPRO/BR/72/M1841 infected in BALB/c mouse assessed as reduction in parasite burden at 5 mg/kg after 6 weeks; assay type: functional; set-up: scale not given: the % may be the effect or the level left
Leishmania amazonensis [8] = assay: Antileishmanial activity against Leishmania amazonensis LV79 MPRO/BR/72/M1841 infected in BALB/c mouse assessed as lesion diameter at 33 mg/kg after 4 weeks; assay type: functional, organism-based; set-up: dose 33 mg/kg
Leishmania amazonensis [9] = assay: Antileishmanial activity against Leishmania amazonensis LV79 MPRO/BR/72/M1841 infected in BALB/c mouse assessed as reduction in parasite burden at 33 mg/kg after 4 weeks; assay type: functional, organism-based; set-up: dose 33 mg/kg; scale not given: the % may be the effect or the level left
Leishmania amazonensis [10] = assay: Antileishmanial activity against Leishmania amazonensis LV79 MPRO/BR/72/M1841 infected in BALB/c mouse assessed as reduction in parasite burden at 33 mg/kg after 7 weeks; assay type: functional, organism-based; set-up: dose 33 mg/kg; scale not given: the % may be the effect or the level left
Leishmania peruviana = assay: Antileishmanial activity against Leishmania peruviana MHOM/PE/LCA08 promastigotes infected in mouse macrophage by MTT assay; assay type: functional, organism-based

Compound	IC50 [1]	Ratio IC50 [2]	IC50 (Leishmania amazonensis [3])	also measured
COc1cc(O)cc(O)c1C(=O)/C=C/c1ccccc1Br	14.6 µM	1.4	10.6 µM	–
COc1cccc(/C=C/C(=O)c2c(O)cc(O)cc2OC)c1	17.6 µM	1.5	12 µM	–
COc1cc(O)cc(O)c1C(=O)/C=C/c1ccccc1F	16 µM	1.4	11.8 µM	–
C=CCOc1cc(OC)c(C(=O)/C=C/c2ccc([N+](=O)[O-])cc2)c(OCC=C)c1	13.2 µM	1.6	8.3 µM	–
COc1cc(/C=C/C(=O)c2c(O)cc(O)cc2OC)ccc1O	–	–	14.9 µM	–
COc1ccc(/C=C/C(=O)c2c(O)cc(OC)cc2OC)cc1 [FLAVOKAWAIN A]	–	–	17.2 µM	–
COc1cc(O)cc(O)c1C(=O)/C=C/c1ccc(O)cc1 [HELICHRYSETIN]	21.7 µM	1.4	15.7 µM	–
C=CCOc1cc(OC)c(C(=O)/C=C/c2cc(OC)c(OC)c(OC)c2)c(OCC=C)c1	12 µM	1.5	8.2 µM	–
COc1ccc(/C=C/C(=O)c2c(O)cc(O)cc2OC)c(OC)c1	> 300 µM	>50	6.4 µM	IC50 (Leishmania amazonensis [4]): 28.5 µM
COc1cc(O)cc(O)c1C(=O)/C=C/c1ccc(Cl)cc1	19 µM	1.7	11.2 µM	–
C=CCOc1cc(OC)c(C(=O)/C=C/C=C/c2ccccc2)c(OCC=C)c1	–	–	75.2 µM	–
C=CCOc1cc(OC)c(C(=O)/C=C/c2ccncc2)c(OCC=C)c1	–	–	0.6 µM	–
C=CCOc1cc(OC)c(C(=O)/C=C/c2ccc(C)cc2)c(OCC=C)c1	–	–	79.8 µM	–
C=CCOc1cc(/C=C/C(=O)c2c(O)cc(O)cc2OC)cc(OCC=C)c1Br	11.5 µM	10.5	1.1 µM	IC50 (Leishmania braziliensis): 14.4 µM; IC50 (Leishmania amazonensis [4]): 4.1 µM; Activity (Leishmania amazonensis [5]): 3.1 mm; Activity (Leishmania amazonensis [6]): 9%; Activity (Leishmania amazonensis [7]): 8%
C=CCOc1cc(OC)c(C(=O)/C=C/c2ccc[nH]2)c(OCC=C)c1	–	–	94.3 µM	–
COc1cc(/C=C/C(=O)c2c(O)cc(O)cc2OC)cc(OC)c1OC	–	–	9.7 µM	–
C=CCOc1cc(OC)c(C(=O)/C=C/c2ccc(F)cc2)c(OCC=C)c1	13.8 µM	1.5	9.5 µM	–
MEGLUMINE ANTIMONATE	–	–	–	Activity (Leishmania amazonensis [8]): 2.1 mm; Activity (Leishmania amazonensis [9]): 100%; Activity (Leishmania amazonensis [10]): 100%

Compound	IC50 [1]	Ratio IC50 [2]	IC50 (Leishmania amazonensis [3])	also measured
COc1cc(O)cc(O)c1C(=O)/C=C/c1ccc(C(F)(F)F)cc1	17.1 µM	2	8.6 µM	–
C=CCOc1cc(OC)c(C(=O)/C=C/c2ccc3c(c2)OCO3)c(OCC=C)c1	–	–	6.6 µM	–
COc1cc(O)cc(O)c1C(=O)/C=C/c1ccc(F)cc1	28.8 µM	2.4	11.8 µM	–
COc1cc(O)cc(O)c1C(=O)/C=C/c1ccc(C)cc1	16.5 µM	2.2	7.4 µM	–
C=CCOc1cc(OC)c(C(=O)/C=C/c2ccc(O)cc2)c(OCC=C)c1	–	–	85.2 µM	–
C=CCOc1cc(OC)c(C(=O)/C=C/c2ccccc2Br)c(OCC=C)c1	5.4 µM	0.7	7.9 µM	–
COc1cc(O)cc(O)c1C(=O)/C=C/C=C/c1ccccc1	–	–	52.6 µM	–
C=CCOc1cc(OC)c(C(=O)/C=C/c2ccccc2F)c(OCC=C)c1	13.3 µM	1.4	9.5 µM	–
COc1cc(O)cc(O)c1C(=O)/C=C/c1ccco1	384 µM	83.5	4.6 µM	IC50 (Leishmania braziliensis): 30.4 µM; IC50 (Leishmania peruviana): 34.2 µM; IC50 (Leishmania amazonensis [4]): 16.9 µM
C=CCOc1cc(OC)c(C(=O)/C=C/c2cccc(OC)c2)c(OCC=C)c1	13.1 µM	1.5	8.7 µM	–
C=CCOc1cc(OC)c(C(=O)/C=C/c2ccc(OC)cc2)c(OCC=C)c1	18.7 µM	3.4	5.5 µM	–
C=CCOc1cc(OC)c(C(=O)/C=C/c2ccc(Cl)cc2)c(OCC=C)c1	13 µM	1.4	9.4 µM	–
C=CCOc1cc(OC)c(C(=O)/C=C/c2ccccn2)c(OCC=C)c1	12.5 µM	11.4	1.1 µM	IC50 (Leishmania braziliensis): 1.4 µM; IC50 (Leishmania peruviana): 4 µM; IC50 (Leishmania amazonensis [4]): 0.9 µM; Activity (Leishmania amazonensis [5]): 3 mm; Activity (Leishmania amazonensis [7]): 25%
C[C@@H]1[C@H](O)[C@@H](C)/C=C/C=C/C=C/C=C/C=C/C=C/C=C/[C@H](O[C@@H]2O[C@H](C)[C@@H](O)[C@H](N)[C@@H]2O)C[C@@H]2O[C@](O)(C[C@@H](O)C[C@@H](O)[C@H](O)CC[C@@H](O)C[C@@H](O)CC(=O)O[C@H]1C)C[C@H](O)[C@H]2C(=O)O [AMPHOTERICIN B]	5.3 µM	76	0.1 µM	IC50 (Leishmania braziliensis): 0.1 µM; IC50 (Leishmania peruviana): 0.1 µM; IC50 (Leishmania amazonensis [4]): 0.4 µM
C=CCOc1cc(OC)c(C(=O)/C=C/c2ccc(O)c(OC)c2)c(OCC=C)c1	–	–	107 µM	–
COc1cc(O)cc(O)c1C(=O)/C=C/c1ccc2c(c1)OCO2	157 µM	38.3	4.1 µM	IC50 (Leishmania braziliensis): 8.6 µM; IC50 (Leishmania peruviana): 19.7 µM; IC50 (Leishmania amazonensis [4]): 16.6 µM
COc1ccc(/C=C/C(=O)c2c(O)cc(O)cc2OC)cc1	166 µM	16.6	10 µM	IC50 (Leishmania braziliensis): 7.6 µM; IC50 (Leishmania peruviana): 23 µM; IC50 (Leishmania amazonensis [4]): 14.3 µM

From ChEMBL document CHEMBL1153187 (Bioorg Med Chem Lett, 2010)
